The nature of one data set: in vivo. The following applies: mouse, po, 416 mg/kg.
Data set [1] is described as follows: Toxicity on intravenous administration to a dog. It is filed as in vivo. The following applies: 100 mg/kg per day for five days.

Starred links: 1 amine or outer side, 2 acyl side, 3 side chain; linkers in the order of their positions; H or OH if unused. Positions of bridges follow the written chain, without caps; N, C: chain ends. Non-standard residues stand in square brackets, D forms with d. Residues, ends and D or L forms follow the SMILES beside them. *: point of attachment. Orn(4R-OH,5R-OH) = O=C([C@H](C[C@@H](O)[C@@H](O)N[*:3])N[*:1])[*:2]; hTyr(3S-OH,4S-OH) = N[C@H](C(=O)O)[C@H](O)[C@@H](O)c1ccc(O)cc1; Benzoyl(4-dodecyloxy) = CCCCCCCCCCCCOc1ccc(C(=O)*)cc1; Pro(3S-OH,4S-Me) = C[C@H]1CN[C@H](C(=O)O)[C@H]1O; Benzoyl(4-octyloxy) = CCCCCCCCOc1ccc(C(=O)*)cc1; X20 = CCCCCCCCCCCCCCOc1ccc(C(=O)*)cc1; X3 = CCCCCCCCCCCCCCSc1ccc(C(=O)*)cc1; X1 = CCCCCCCCCCCCSc1ccc(C(=O)*)cc1; Hyp = O=C(O)[C@@H]1C[C@@H](O)CN1; X6 = CCCCCCCCCCSc1ccc(C(=O)*)cc1; X7 = CCCCCCCCSc1ccc(C(=O)*)cc1

Protocol for in vivo: In this test, mice are gavaged with a dose of 416 mg/kg of the test compound suspended in 33% PEG 400-water. At time intervals, blood samples are taken from the orbital sinus and are assayed for antibiotic activity as follows: A 7 mm. disc containing 20 μl of whole blood is placed on agar seeded with Aspergillus montevidensis A35137. After 40 hours incubation at 30° C. zones of inhibition from the blood samples are compared to a standard obtained from the test compound, and the amount of compound in the blood sample is calculated.

With `CCCCCCCCCCCCOc1ccc(C(=O)N[C@H]2C[C@@H](O)[C@@H](O)NC(=O)[C@@H]3[C@@H](O)[C@@H](C)CN3C(=O)[C@H]([C@@H](C)O)NC(=O)[C@H]([C@H](O)[C@@H](O)c3ccc(O)cc3)NC(=O)[C@@H]3C[C@@H](O)CN3C(=O)[C@H]([C@@H](C)O)NC2=O)cc1` [drawing 183] ({Benzoyl(4-dodecyloxy)}-[Orn(4R-OH,5R-OH)]T[Hyp][hTyr(3S-OH,4S-OH)]T[Pro(3S-OH,4S-Me)]; lactam 1-C), in “in vivo”, the Cmax is 5000 ng/mL.
The same measure, in the same setting: the result for `CCCCCCCCCCCCCCOc1ccc(C(=O)N[C@H]2C[C@@H](O)[C@@H](O)NC(=O)[C@@H]3[C@@H](O)[C@@H](C)CN3C(=O)[C@H]([C@@H](C)O)NC(=O)[C@H]([C@H](O)[C@@H](O)c3ccc(O)cc3)NC(=O)[C@@H]3C[C@@H](O)CN3C(=O)[C@H]([C@@H](C)O)NC2=O)cc1` [drawing 184] (X20-[Orn(4R-OH,5R-OH)]T[Hyp][hTyr(3S-OH,4S-OH)]T[Pro(3S-OH,4S-Me)]; lactam 1-C) reads 5000 ng/mL; that for `CCCCCCCCSc1ccc(C(=O)N[C@H]2C[C@@H](O)[C@@H](O)NC(=O)[C@@H]3[C@@H](O)[C@@H](C)CN3C(=O)[C@H]([C@@H](C)O)NC(=O)[C@H]([C@H](O)[C@@H](O)c3ccc(O)cc3)NC(=O)[C@@H]3C[C@@H](O)CN3C(=O)[C@H]([C@@H](C)O)NC2=O)cc1` [drawing 185] (X7-[Orn(4R-OH,5R-OH)]T[Hyp][hTyr(3S-OH,4S-OH)]T[Pro(3S-OH,4S-Me)]; lactam 1-C), below 100 ng/mL; that for `CCCCCCCCCCSc1ccc(C(=O)N[C@H]2C[C@@H](O)[C@@H](O)NC(=O)[C@@H]3[C@@H](O)[C@@H](C)CN3C(=O)[C@H]([C@@H](C)O)NC(=O)[C@H]([C@H](O)[C@@H](O)c3ccc(O)cc3)NC(=O)[C@@H]3C[C@@H](O)CN3C(=O)[C@H]([C@@H](C)O)NC2=O)cc1` [drawing 186] (X6-[Orn(4R-OH,5R-OH)]T[Hyp][hTyr(3S-OH,4S-OH)]T[Pro(3S-OH,4S-Me)]; lactam 1-C), 5000 ng/mL.
Still for that read-out and setting: the value for `CCCCCCCCCCCCSc1ccc(C(=O)N[C@H]2C[C@@H](O)[C@@H](O)NC(=O)[C@@H]3[C@@H](O)[C@@H](C)CN3C(=O)[C@H]([C@@H](C)O)NC(=O)[C@H]([C@H](O)[C@@H](O)c3ccc(O)cc3)NC(=O)[C@@H]3C[C@@H](O)CN3C(=O)[C@H]([C@@H](C)O)NC2=O)cc1` [drawing 187] (X1-[Orn(4R-OH,5R-OH)]T[Hyp][hTyr(3S-OH,4S-OH)]T[Pro(3S-OH,4S-Me)]; lactam 1-C) was 30000 ng/mL; that for `CCCCCCCCCCCCCCSc1ccc(C(=O)N[C@H]2C[C@@H](O)[C@@H](O)NC(=O)[C@@H]3[C@@H](O)[C@@H](C)CN3C(=O)[C@H]([C@@H](C)O)NC(=O)[C@H]([C@H](O)[C@@H](O)c3ccc(O)cc3)NC(=O)[C@@H]3C[C@@H](O)CN3C(=O)[C@H]([C@@H](C)O)NC2=O)cc1` [drawing 188] (X3-[Orn(4R-OH,5R-OH)]T[Hyp][hTyr(3S-OH,4S-OH)]T[Pro(3S-OH,4S-Me)]; lactam 1-C) was 230000 ng/mL.
For `CCCCCCCCOc1ccc(C(=O)N[C@H]2C[C@@H](O)[C@@H](O)NC(=O)[C@@H]3[C@@H](O)[C@@H](C)CN3C(=O)[C@H]([C@@H](C)O)NC(=O)[C@H]([C@H](O)[C@@H](O)c3ccc(O)cc3)NC(=O)[C@@H]3C[C@@H](O)CN3C(=O)[C@H]([C@@H](C)O)NC2=O)cc1` [p-(n-octyloxy)benzoyl derivative of A-30912A nucleus] ({Benzoyl(4-octyloxy)}-[Orn(4R-OH,5R-OH)]T[Hyp][hTyr(3S-OH,4S-OH)]T[Pro(3S-OH,4S-Me)]; lactam 1-C), in data set [1], the SGPT levels result was “increased SGPT levels were observed” and the “outward signs of toxicity” value was “no outward signs of toxicity”.

One may read the Cmax as the maximum level reached in the sampled fluid or tissue.
